Source: PMC5575539 (Journal of Clinical Pharmacology, 2017)
Like-named read-outs stand apart in the source and are kept apart here.

Tests used:
[1] = format: in vivo, human; settings: ROC curve; TEAEs during cycle 1; subjects with HCC
[2] = format: in vivo, human; settings: for AUC: human, plasma, oral, 12 mg, Median AUC based on the starting dose, steady state, model‐derived
[3] = 4‐week cycles, continuous schedule; subjects with Child‐Pugh class A; cited from earlier work
[4] = Population pharmacokinetic analysis of lenvatinib; format: in vivo, human; settings: for Additional (ng/mL) (TAD ≤ 2 hours) / Proportional (%CV) (Clinical pharmacology studies) / Proportional (%CV) (Patient studies) / Proportional (%CV) (TAD ≤ 2 hours): residual error
[5] = tested on: subjects with HCC Child‐Pugh class A; settings: 12 mg QD; independent radiologic review per modified RECIST; cited from earlier work
[6] = final model, bootstrap median (2.5‐97.5 percentile)
[7] = final model, population mean (%RSE)
[8] = base model, population mean (%RSE)

COc1cc2nccc(Oc3ccc(NC(=O)NC4CC4)c(Cl)c3)c2cc1C(N)=O [lenvatinib]
Best cutoff value of lenvatinib AUC to predict high‐risk group for early drug withdrawal or dose reduction [1]: 2430 ng·h/mL | Subjects who experienced TEAEs leading to dose reduction or discontinuation during cycle 1 ([2]; 21 of 45 subjects in the exposure–response population, 12 mg QD, HCC): 46.7% | Relationship between lenvatinib exposure and response (time to progression) ([2]; Kaplan‐Meier, tertiles of AUC based on starting dose of 12 mg, independent reviewer assessments): No relationship | AUC ([2]; subjects with early dose withdrawal or reduction): 2950 ng·h/mL | AUC ([2]; subjects without early dose modification): 2050 ng·h/mL | Maximum tolerated dose [3]: 12 mg QD | Ka ([4]; base model, population mean (%RSE), absorption rate): 1.02 (6.06) L/h | D1 ([4]; base model, population mean (%RSE), duration of 0‐order absorption): 1.05 (5.45) hours | F1 (capsule vs tablet formulation) ([4]; base model, population mean (%RSE), relative bioavailability): 0.832 (0.982) | Effect of the HCC population (HCC vs other cancer type) on CL/F ([4]; covariate analysis, model including body weight and alkaline phosphatase effects): not a statistically significant effect | CL/F interindividual variability explained by body weight ([4]; final PK model): 10.5% | CL/F interindividual variability explained by other covariates ([4]; final PK model): 14.3% | Decrease of CL/F with CYP3A4 inhibitors ([4]; final PK model): 7.8% | Decrease of CL/F with alkaline phosphatase above the upper limit of normal ([4]; final PK model): 14.8% | Higher CL/F in healthy subjects than in patients with cancer ([4]; final PK model): 19% | Increase of CL/F with concomitant administration of CYP3A4 inducers ([4]; final PK model): 30% | Decrease of CL/F with alkaline phosphatase above the upper limit of normal ([4]; final PK model, listed as Lenvatinib): 15% | ALP (> ULN vs ≤ ULN) on CL/F [ΘALP] [4, 6]: 0.855 (0.807‐0.910) | Body weight on V1/F, V2/F, and V3/F [ΘWGT2] [4, 6]: 1.08 (0.876‐1.28) | D1 [4, 6]: 1.06 (0.987‐1.14) hours | F1 (capsule vs tablet formulation) [4, 6]: 0.867 (0.815‐0.908) | Ka [4, 6]: 1.04 (0.933‐1.13) L/h | Population (healthy vs subjects) on CL/F [ΘTM] [4, 6]: 1.19 (1.11‐1.27) | ALP (> ULN vs ≤ ULN) on CL/F [ΘALP] [4, 7]: 0.852 (1.24) | Population (healthy vs subjects) on CL/F [ΘTM] [4, 7]: 1.19 (3.26) | Ka ([4]; final model, population mean (%RSE), absorption rate): 1.04 (6.80) L/h | D1 ([4]; final model, population mean (%RSE), duration of 0‐order absorption): 1.06 (5.77) hours | Body weight on V1/F, V2/F, and V3/F [ΘWGT2] ([4]; final model, population mean (%RSE), power exponent on WGT/75): 1.08 (5.42) | F1 (capsule vs tablet formulation) ([4]; final model, population mean (%RSE), relative bioavailability): 0.867 (1.00) | Differences in CL/F between HCC Child‐Pugh class A and B groups ([4]; population PK analysis): No differences in CL/F | Additional (ng/mL) (TAD ≤ 2 hours) [4, 8]: 7.29 (16.2) ng/mL | Proportional (%CV) (Clinical pharmacology studies) [4, 8]: 18.4 (0.888) %CV | Proportional (%CV) (Patient studies) [4, 8]: 30.7 (2.03) %CV | Proportional (%CV) (TAD ≤ 2 hours) [4, 8]: 44.9 (3.75) %CV | Additional (ng/mL) (TAD ≤ 2 hours) [4, 6]: 7.50 (4.62‐9.85) ng/mL | Proportional (%CV) (Clinical pharmacology studies) [4, 6]: 17.1 (15.5‐18.8) %CV | Proportional (%CV) (Patient studies) [4, 6]: 30.1 (27.7‐32.2) %CV | Proportional (%CV) (TAD ≤ 2 hours) [4, 6]: 44.8 (40.7‐48.8) %CV | Additional (ng/mL) (TAD ≤ 2 hours) [4, 7]: 7.35 (16.3) ng/mL | Proportional (%CV) (Clinical pharmacology studies) [4, 7]: 17.3 (0.883) %CV | Proportional (%CV) (Patient studies) [4, 7]: 30.2 (2.00) %CV | Proportional (%CV) (TAD ≤ 2 hours) [4, 7]: 44.8 (3.87) %CV | Median time to progression [5]: 7.4 months | Objective response rate [5]: 37%
